Literature values in patent publication US11134680B2, “Disinfectant having organic acids” (Bode Chemie GmbH, priority 2015, dated 2021).
Each block holds one molecule with its values, some of them ahead of it.

Tests used:
C. albicans = conditions: 72 hours
[1] = at 20° C.
Staphylococcus aureus = conditions: exposure time of 72 hours

SMILES: O=C([O-])c1ccccc1.[Na+] [sodium benzoate]
- MMC (C. albicans; >5 log): 1200 µg/mL
- reduction (microbicidal action) (C. albicans; application solution of 0.12%): > 5 log

- pKa [1]: 3.87
SMILES: CC(O)C(=O)O (centres unmarked) [lactic acid]
- reduction factor (Staphylococcus aureus; concentration of 0.3%): > 5 log

- minimum inhibitory concentration (MIC) (Staphylococcus aureus): 9%
SMILES: CC(=O)O [acetic acid]
